# Counter-ions that a name gives are not always drawn.
# Key:
# Type in all cases: physicochemical
# [1] = Stability of AN-197 by daily HPLC over 24 days, mobile phase solution vs neat oil; conditions: 20° C.
# Experimental: (§1) HPLC analyses were performed on a Water 2695 Separations Module, using a Luna C18 (2) 50 mm×4.6 mm×3 um column, a 5 μl injection volume and a 2487 dual wavelength detector under the following instrumental conditions: Mobile phase A: 0.1% formic acid; Mobile phase B: acetonitrile; Flow rate: 0.5 ml per minute; Mobile phase gradient: 0.0 minutes 90% A, 10% B, 14.0 minutes 20% A, 80% B, 15.0 minutes 90% A, 10% B and 20.0 minutes 90% A, 10% B; Run time: 20 minutes; Detection: UV at 254 nm; Column temperature: 40° C.
# The stability of AN-197 was determined by performing an HPLC analysis daily during a period of 24 days and determining the appearance of perphenazine and GABA, the degradation products of AN-197. A sample of AN-197, prepared according to the procedure described above in Example 4 (Route B), was dissolved in the mobile phase solution used in the HPLC analysis (2:1 acetonitrile:water, pH=8) and was kept at 20° C. For comparison, a sample of neat AN-197 was kept under the same conditions and was similarly analyzed.
# [2] = Stability of AN-197 in dichloromethane, acetonitrile or ethyl acetate heated to 40° C. overnight; conditions: dissolved in dichloromethane
# Experimental: To evaluate the stability of AN-197 under conditions of a large scale production, characterized by longer procedure times, samples of AN-197, prepared according to the procedure described in Example 4 above (Route B) above, dissolved in dichloromethane, acetonitrile or ethyl acetate were heated to 40° C. overnight. […] It was therefore concluded that AN-197 is stable under such conditions.
# [3] = Stability of AN-197 under acidic conditions (citric acid solution); conditions: in ethyl acetate, stirred in citric acid solution overnight
# Experimental: To evaluate the stability of AN-197 under acidic conditions, a sample of AN-197, prepared according to the procedure described in Example 4 (Route B) above, was dissolved in ethyl acetate and stirred in a citric acid solution overnight.
# [4] = Chemical stability of mesylate and maleate salts by HPLC under various storage conditions
# Experimental: The chemical stability of the conjugates was determined by HPLC analyses and was measured by the relative peak areas of the substance and of at least one of its degradation products. Thus, as is further exemplified in the Examples section that follows, the chemical stability of the exemplary conjugates described above was measured during time periods that typically ranged from 1 day to 24 days, whereby the conjugates were kept in sealed or open containers, with or without nitrogen atmosphere, and at a temperature range of from −20° C. to 40° C.
# as §1
# (§2) Stability and hygroscopicity studies of the mesylate and maleate salts of the conjugate were carried out under various conditions. The hygroscopicity of the salts was determined by following the water content of the salt using the Karl Fischer (KF) titration analysis method. The chemical stability of the salts was determined by following the appearance of the degradation product perphenazine using HPLC analyses. The samples were kept at −20° C. under nitrogen, at room temperature in an open container, at room temperature in a sealed container and at 40° C. in a sealed container. The samples were tested at the end of the preparation procedure (t=0), 72 hours after the preparation time (t=72), 1 week after the preparation time (t=168) and two weeks after the preparation time (t=336).
# [5] = Hygroscopicity of mesylate and maleate salts by Karl Fischer titration
# Experimental: Water absorption and content measurements were carried out using a Karl Fischer (KF) titrator. Karl Fischer titration is a classic method in analytical chemistry that uses calometric titration to determine the moisture content of a sample, which is specific to water. The titration reaction taking place in the presence of a base and 50:50 methanol:dichloromethane as a titration solvent.
# The accurately weighted samples (near 100 mg) of the tested compound were placed in the titrator to determine the amount of sample required for measuring 10-250 μg of water, and the water content was calculated accordingly.
# as §2
# [6] = Solubility in 1% weight/volume lactic acid solution; conditions: agitated 1 hour at room temperature, listed as mesylate salt
# Experimental: 1.0 gram of each of the mesylate and maleate addition salts prepared as described herein was agitated in 10 ml of 1% weight/volume lactic acid solution for 1 hour at room temperature. Any solids remaining thereafter were filtered off and the filtrate was dried under vacuum until no further change in weight was detected. […] The calculated solubility obtained for the mesylate salt was more than 100 mg/ml.
# [7] = Chemical stability of mesylate and maleate salts by HPLC under various storage conditions; conditions: room temperature, open to the atmosphere; listed as mesylate salt
# [8] = Open container kept at room temperature, t = 0 hours
# [9] = Open container kept at room temperature, t = 72 hours
# [10] = Open container kept at room temperature, t = 168 hours
# [11] = Open container kept at room temperature, t = 336 hours
# [12] = Sealed container kept at 40° C., t = 0 hours
# [13] = Sealed container kept at 40° C., t = 72 hours
# [14] = Sealed container kept at 40° C., t = 168 hours
# [15] = Sealed container kept at 40° C., t = 336 hours
# [16] = Sealed container kept at room temperature, t = 0 hours
# [17] = Sealed container kept at room temperature, t = 72 hours
# [18] = Sealed container kept at room temperature, t = 168 hours
# [19] = Sealed container kept at room temperature, t = 336 hours
# [20] = Sealed container kept at −20° C. under N2, t = 0 hours
# [21] = Sealed container kept at −20° C. under N2, t = 72 hours
# [22] = Sealed container kept at −20° C. under N2, t = 168 hours
# [23] = Sealed container kept at −20° C. under N2, t = 336 hours
structure (smiles),measurement,setting,value
"CC(C)(C)OC(=O)NCCCC(=O)OCCN1CCN(CCCN2c3ccccc3Sc3ccc(Cl)cc32)CC1 [AN-197, Perphenazine N-Boc-4-aminobutyrate]",perphenazine content (HPLC),"[1]; AN-197 solution in HPLC mobile phase (2:1 acetonitrile:water, pH=8), after 24 days",7.98%
same,perphenazine content (HPLC),"[1]; AN-197 solution in HPLC mobile phase (2:1 acetonitrile:water, pH=8), initial",0.42%
same,perphenazine content (HPLC),"[1]; neat oil, after 24 days",0.79%
same,perphenazine content (HPLC),"[1]; neat oil, initial",0.42%
same,degradation,[2],no degradation had occurred
same,hydrolysis of the product,[3],no hydrolysis
NCCCC(=O)OCCN1CCN(CCCN2c3ccccc3Sc3ccc(Cl)cc32)CC1 [mesylate addition salt],Salt peak area,[4]; [8],97.91%
same,perphenazine peak area,[4]; [8],1.39%
same,Salt peak area,[4]; [9],90.30%
same,perphenazine peak area,[4]; [9],8.53%
same,Salt peak area,[4]; [10],81.40%
same,perphenazine peak area,[4]; [10],17.68%
same,Salt peak area,[4]; [11],61.97%
same,Unidentified impurity peak area,[4]; [11],0.05%
same,perphenazine peak area,[4]; [11],35.74%
same,Salt peak area,[4]; [12],97.91%
same,perphenazine peak area,[4]; [12],1.39%
same,Salt peak area,[4]; [13],91.83%
same,perphenazine peak area,[4]; [13],7.33%
same,Salt peak area,[4]; [14],91.91%
same,perphenazine peak area,[4]; [14],7.56%
same,Salt peak area,[4]; [15],87.17%
same,perphenazine peak area,[4]; [15],11.63%
same,Salt peak area,[4]; [16],97.91%
same,perphenazine peak area,[4]; [16],1.39%
same,Salt peak area,[4]; [17],95.84%
same,perphenazine peak area,[4]; [17],3.17%
same,Salt peak area,[4]; [18],94.98%
same,perphenazine peak area,[4]; [18],4.52%
same,Salt peak area,[4]; [19],91.67%
same,perphenazine peak area,[4]; [19],6.88%
same,Salt peak area,[4]; [20],97.91%
same,perphenazine peak area,[4]; [20],1.39%
same,Salt peak area,[4]; [21],98.08%
same,perphenazine peak area,[4]; [21],1.34%
same,Salt peak area,[4]; [22],98.22%
same,perphenazine peak area,[4]; [22],1.26%
same,Salt peak area,[4]; [23],98.24%
same,perphenazine peak area,[4]; [23],1.21%
same,stability in words,[4]; sealed container at −20° C. under nitrogen atmosphere,mostly stable
same,Water content %,[5]; [8],0.6%
same,Water content %,[5]; [9],1.2%
same,Water content %,[5]; [10],4.0%
same,Water content %,[5]; [11],4.8%
same,Water content %,[5]; [12],0.6%
same,Water content %,[5]; [13],0.8%
same,Water content %,[5]; [14],1.2%
same,Water content %,[5]; [15],0.9%
same,Water content %,[5]; [16],0.6%
same,Water content %,[5]; [17],0.8%
same,Water content %,[5]; [18],1.3%
same,Water content %,[5]; [19],1.5%
same,Water content %,[5]; [20],0.6%
same,Water content %,[5]; [21],0.6%
same,Water content %,[5]; [22],0.7%
same,Water content %,[5]; [23],0.6%
same,calculated solubility,[6],more than 100 mg/ml
same,texture and color after storage,[7],become sticky in texture and changed color from pink to black
